Test results: PMC5654082 (Malaria Journal, 2017)
Where two headings read alike, the source gives them in different places. Marks after values point to notes of the source that are not given here.

What was measured:
OCT1 = tested on: OCT1; set-up: method as in PMID 25914645; settings: read-out: Absolute IC50 for OCT1; cited from earlier work
[1] = cited from earlier work
[2] = cited from earlier work; remark: listed apart in the source
human OCT2 [3] = target: T1, human OCT2 (Homo sapiens, UniProt O15244); experiment: Inhibition of OCT2-mediated ASP uptake in transduced HEK293 cells; type: cell-based; settings: 10 µM ASP, 10 min, 37 °C
T1 construct: host or cells: HEK293, baculovirus transduction (CMV promoter), transient
T1 sequence (O15244 1-555): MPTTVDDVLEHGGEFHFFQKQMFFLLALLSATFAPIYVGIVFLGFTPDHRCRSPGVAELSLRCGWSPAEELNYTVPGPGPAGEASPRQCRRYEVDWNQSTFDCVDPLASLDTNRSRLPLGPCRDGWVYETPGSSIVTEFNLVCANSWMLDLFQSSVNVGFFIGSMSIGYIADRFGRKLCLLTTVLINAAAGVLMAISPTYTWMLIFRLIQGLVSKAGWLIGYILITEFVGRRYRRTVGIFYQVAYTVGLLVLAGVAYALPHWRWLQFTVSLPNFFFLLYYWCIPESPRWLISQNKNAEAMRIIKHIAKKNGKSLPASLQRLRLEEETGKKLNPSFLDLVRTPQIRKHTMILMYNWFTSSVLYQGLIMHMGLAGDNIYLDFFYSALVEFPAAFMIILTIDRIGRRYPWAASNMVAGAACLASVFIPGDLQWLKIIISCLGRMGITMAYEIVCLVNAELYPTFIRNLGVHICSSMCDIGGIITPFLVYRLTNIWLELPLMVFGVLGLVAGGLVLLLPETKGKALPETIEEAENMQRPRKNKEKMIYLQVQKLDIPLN
Procedure: HEK293 cells were modified to transiently express (a combination of) human OCT1, OCT2, MATE1, MATE2-K, or eYFP. Briefly, cDNA of the respective genes was cloned downstream of a CMV promoter into a baculovirus, of which passage three was used to transduce HEK293 cells. These cells were seeded in poly-D-lysine coated 24- or 96-wells plates and grown in a 37 °C incubator at 5% CO2. […] After 24 h, cells were transduced with 30 µL virus (10 µL virus + 20 µL complete medium in case of 96-wells plates) or 2 × 15 µL virus for cells that required simultaneous expression of two transporters. Finally, 195 µL sodium butyrate (45 µL for 96-wells plates) was added to a final concentration of 2 mM to enhance protein expression.
AMO (10 mM), ASP (1 mM), CQ (10 mM), PQ (10 mM) and PG (10 mM) were dissolved in MilliQ water. ART (10 mM), ATO (10 mM), DHA (10 mM), LUM (10 mM), MQ (10 mM), NMQ (20 mM), PYR (10 mM), QN (10 mM) were dissolved in DMSO. All compound stocks were stored at − 20 °C. Inhibition of OCT1- or OCT2-mediated ASP uptake by anti-malarials was performed in poly-D-lysine coated 96-wells plates 2 or 3 days following HEK293 cell transduction. In short, cells were washed with 125 µL 37 °C HBSS containing 10 mM HEPES, pH 7.4. […] ASP transport was stopped by washing with 125 µL ice-cold HBSS-HEPES buffer supplemented with 0.5% BSA.
(§1) For each compound, a range of seven concentrations was used to determine the concentration at which ASP uptake was inhibited half maximally (IC50). At least three independent experiments (4 for QN) were performed for each drug in triplicate as described above. […] To generate the final dose–response inhibition curve per anti-malarial, percentage of uptake was averaged for each drug concentration per experiment and the resulting mean ± SEM corresponding to three or four independent experiments were plotted.

OCT2 = tested on: OCT2; set-up: method as in PMID 20053795; settings: 50 µM; HeLa cells, metformin as substrate; cited from earlier work
[4] = Maximum plasma concentration from in vivo pharmacokinetic studies after therapeutic dosing; settings: human, the literature Cmax (ng/mL) of Table 2 expressed in µM
Excerpt: As Cmax the (geometric) mean or median maximum plasma concentrations obtained from previous in vivo pharmacokinetic studies after therapeutic dosing was used.

human OCT1 = target: T2, human OCT1 (Homo sapiens, UniProt O15245); experiment: Inhibition of OCT1-mediated ASP uptake in transduced HEK293 cells; type: cell-based; settings: 50 µM anti-malarial, 10 µM ASP, 10 min, 37 °C; relative to solvent control fixed at 100%
T2 construct: host or cells: HEK293, baculovirus transduction (CMV promoter), transient
T2 sequence (O15245 1-554): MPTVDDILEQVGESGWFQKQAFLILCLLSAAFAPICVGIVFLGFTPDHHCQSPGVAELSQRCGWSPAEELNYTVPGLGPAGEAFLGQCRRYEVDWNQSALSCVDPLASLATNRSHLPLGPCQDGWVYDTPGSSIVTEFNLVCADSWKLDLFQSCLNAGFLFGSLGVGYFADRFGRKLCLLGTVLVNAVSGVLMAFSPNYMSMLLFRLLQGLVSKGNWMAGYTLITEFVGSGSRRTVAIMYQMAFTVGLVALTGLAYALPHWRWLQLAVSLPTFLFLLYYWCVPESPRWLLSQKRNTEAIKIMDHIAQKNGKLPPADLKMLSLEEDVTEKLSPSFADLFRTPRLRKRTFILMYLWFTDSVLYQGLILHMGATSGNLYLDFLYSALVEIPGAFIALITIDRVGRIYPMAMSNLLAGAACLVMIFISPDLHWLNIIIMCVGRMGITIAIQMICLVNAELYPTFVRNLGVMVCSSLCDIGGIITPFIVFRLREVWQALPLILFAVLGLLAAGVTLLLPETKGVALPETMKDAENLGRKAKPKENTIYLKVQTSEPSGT
Procedure: HEK293 cells were modified to transiently express (a combination of) human OCT1, OCT2, MATE1, MATE2-K, or eYFP. Briefly, cDNA of the respective genes was cloned downstream of a CMV promoter into a baculovirus, of which passage three was used to transduce HEK293 cells. These cells were seeded in poly-D-lysine coated 24- or 96-wells plates and grown in a 37 °C incubator at 5% CO2. Growth was initiated at ~ 25% confluency using 375 or 125 μL cell and complete medium (DMEM + GlutaMAX™-I supplemented with 10% fetal bovine serum) suspension per well, respectively. After 24 h, cells were transduced with 30 µL virus (10 µL virus + 20 µL complete medium in case of 96-wells plates) or 2 × 15 µL virus for cells that required simultaneous expression of two transporters. Finally, 195 µL sodium butyrate (45 µL for 96-wells plates) was added to a final concentration of 2 mM to enhance protein expression.
AMO (10 mM), ASP (1 mM), CQ (10 mM), PQ (10 mM) and PG (10 mM) were dissolved in MilliQ water. ART (10 mM), ATO (10 mM), DHA (10 mM), LUM (10 mM), MQ (10 mM), NMQ (20 mM), PYR (10 mM), QN (10 mM) were dissolved in DMSO. All compound stocks were stored at − 20 °C. Inhibition of OCT1- or OCT2-mediated ASP uptake by anti-malarials was performed in poly-D-lysine coated 96-wells plates 2 or 3 days following HEK293 cell transduction. In short, cells were washed with 125 µL 37 °C HBSS containing 10 mM HEPES, pH 7.4. Then, a 50 µL mixture of ASP (10 µM) and anti-malarial compound (25, 50 or 100 µM) in HBSS buffer (pH 7.4) was added to each well and incubated for 10 min at 37 °C. ASP transport was stopped by washing with 125 µL ice-cold HBSS-HEPES buffer supplemented with 0.5% BSA. Following a second wash with 125 µL ice-cold HBSS-HEPES buffer, cells were lysed with 125 µL 1 M NaOH and ASP was excited at a wavelength of 485 nm and fluorescence was detected at an emission wavelength of 535 nm using the Victor X3 multimode plate reader.
as §1, with “above. Inhibition curves were plotted by nonlinear regression analyses of the data using GraphPad Prism version 5.03.” for “above.”

human OCT2 [5] = target: T1, human OCT2; set-up: method as in PMID 21544077; settings: HEK293 cells stably expressing human OCT2; read-out: Ki for OCT2-mediated MET uptake; cited from earlier work
[6] = substrate: [H]/N=C(\N/C(=N/[H])Nc1ccc(Cl)cc1)NC(C)C; experiment: OCT2-mediated cellular import in transduced HEK293 cells (LC-MS/MS); type: cell-based, human; settings: other: 1 min incubation, 37 °C, 2.0–16 µM, pH 7.4
Procedure: HEK293 cells were modified to transiently express (a combination of) human OCT1, OCT2, MATE1, MATE2-K, or eYFP. Briefly, cDNA of the respective genes was cloned downstream of a CMV promoter into a baculovirus, of which passage three was used to transduce HEK293 cells. These cells were seeded in poly-D-lysine coated 24- or 96-wells plates and grown in a 37 °C incubator at 5% CO2. Growth was initiated at ~ 25% confluency using 375 or 125 μL cell and complete medium (DMEM + GlutaMAX™-I supplemented with 10% fetal bovine serum) suspension per well, respectively. […]
HEK293 cells were seeded in 24-wells poly-D-lysine coated plates and transduced the subsequent day with OCT1 or OCT2 as described above. […] Following a second wash with 400 µL ice-cold HBSS-HEPES buffer, cells were lysed with 200 µL 50% (v/v) MeOH and 0.1% (v/v) formic acid (HCOOH) in water and samples were sent for quantification by mass spectrometry analysis (see “LC–MS/MS quantification of anti-malarials” section). […]
The affinity (KM) and maximum transport rate (Vmax) for OCT1 and OCT2 of PG were determined by analysing concentration-dependent uptake data from three independent experiments.
Import and export of PG and cycloguanil (CG) was assessed by single and double transduced HEK293 cells. […]

In the case of O=C1Nc2ccc(Cl)cc2[C@@](C#CC2CC2)(C(F)(F)F)O1 [EFV, efavirenz], the IC50 (OCT1) is listed as 22 µM, the Unbound in plasma [1] is listed as “about 0.22%” and the “Unbound maximum plasma concentration” value [1] is listed as 0.03 µM. The Maximum plasma concentration [2] was 13 µM.

In the case of CCc1nc(N)nc(N)c1-c1ccc(Cl)cc1 [Pyrimethamine, pyrimethamine], the IC50 (human OCT2 [3]; seven concentrations) is listed as 1.6 µM, the “Relative ASP uptake (OCT2-mediated)” value (human OCT2 [3]; 50 µM anti-malarial, relative to solvent control fixed at 100%) is listed as 6 ± 2% and the Unbound fraction [1] is listed as 0.06 [49]. For the same molecule, the Cmax ([2]; patients with acute falciparum malaria, (geometric) mean or median) was 281^e [48] ng/mL, the “Reduction of OCT2 activity” value (OCT2) was 60% and the Cmax [4] was 1.1 µM. For the same molecule, the “Relative ASP uptake (OCT1-mediated)” value (human OCT1) was 59 ± 6% and the Ki (human OCT2 [5]) was 10 µM.

B1: human OCT2 (Homo sapiens) (protein)
chain: T1 sequence (O15244 1-555)
notes: host or cells: HEK293, baculovirus transduction (CMV promoter), transient
Molecule B1 has a Km [6] of 9.0 µM.
